Several values for one entry are separate records, joined by “and”; a condition that tells them apart may be missing. Equal entries are not always repeated. Entries after “also recorded” stand apart in the source; their conditions may differ.
Tests used:
Male Sprague-Dawley rats [1] = assay: Time to emergence after a standardized isoflurane general anesthetic; type: in vivo, rat
Source text: Animal Care and Use. Animal studies were approved by the Subcommittee on Research Animal Care, Massachusetts General Hospital, Boston, Mass. Male Sprague-Dawley rats (Charles River Laboratories, Wilmington, Mass.) weighing 351-565 grams were used. […] Separate groups of animals were used for the electroencephalogram (4 rats), plethysmography (4 rats), and blood gas studies (6 rats). In animals that underwent multiple experiments, each animal was provided with at least 3 days of rest between experiments. Animals were kept on a standard day-night cycle (lights on at 7 AM, and off at 7 PM), and all experiments were performed during the day.
Preparation and Delivery of Drugs. […] Droperidol was diluted in normal saline to a final volume of 0.5 ml prior to administration. […]

Male Sprague-Dawley rats [2] = assay: Return of righting during continuous isoflurane general anesthesia; type: in vivo, rat
Source text: Anesthetizing Protocol. Rats were anesthetized in an induction chamber with 2-3% isoflurane in oxygen prior to placement of a lateral tail vein intravenous catheter (24 gauge, 19 mm). A rectal temperature probe was inserted and the animal was placed in a cylindrical acrylic anesthetizing chamber. The chamber was custom-built and equipped with ports for anesthetic gas delivery, sampling, and scavenging, as well as intravenous drug administration. A heating pad was placed under the chamber to keep the animal warm, and the body temperature was kept between 36.5° C. and 37.4° C.
The rat was positioned supine in the anesthetizing chamber and the inhaled concentration of isoflurane was initially fixed at 2.0% for 20 minutes, then reduced to 0.8% over 15-20 minutes, and then maintained at 0.8% for 40 minutes. If the rat made any purposeful movement, the isoflurane concentration was increased by 0.1% and maintained for another 40 minutes. This process was repeated until the final dose of isoflurane sufficient to maintain loss of righting reflex was established, and this dose was administered throughout the remainder of the experiment. This protocol was based on previously published methods described by Alkire et al.^4,11 After the final 40-minute equilibration period, normal saline (2 ml) was administered and the rectal temperature probe was removed. Five minutes later, methylphenidate was administered.
Prism 4.03 (Graphpad Software, San Diego, Calif.) and Matlab (Mathworks, Natick, Mass.) were used for statistical analysis and where possible, results are reported in terms of 95% confidence intervals based on z-tests, t-tests or Mann-Whitney tests. […] For this computation the inventors assumed a binomial model as the sampling density or likelihood function for the propensity of animals in a given group to have return of the righting response. The inventors took as the prior density for each group the uniform density on the interval (0, 1) because it is uninformative. Because of the conjugacy between the prior and the likelihood the posterior density for each group is a beta density.^17 The posterior densities for the differences in the proportion of animals that had return of righting were then computed by using standard Matlab simulation procedures. Instead of p-values for the Bayesian analyses the inventors computed the posterior probability that the propensity to right was greater in on group compared to the other.

Male Sprague-Dawley rats [3] = assay: Arterial blood gas analysis during isoflurane general anesthesia; type: in vivo, rat
Method: (§1) Arterial Blood Gas and Hemodynamic Recordings. Rats with femoral artery catheters (Charles River Laboratories, Wilmington, Mass.) were placed in the anesthetizing chamber after lateral tail vein IV catheter placement. The isoflurane dose was kept constant at 1.5%. Mean arterial blood pressure and heart rate were measured using a pressure transducer (TruWave, Edwards Life Sciences, Irvine, Calif.) interfaced with a custom-built amplifier (AD620 operational amplifier, Jameco Electronics, Belmont, Calif.). […] Samples were promptly analyzed using CG4+ cartridges in a Vetscan iStat 1 (Abaxis, Union City, Calif.) blood gas analyzer.
To provide a conservative check on the assessments made by the 95% confidence intervals and the parametric tests and non-parametric tests were also used to assess statistical significance. The Mann-Whitney test was used to test the hypothesis that methylphenidate hastens time to emergence from isoflurane general anesthesia, and to test the dose-dependence of methylphenidate on time to righting during continuous isoflurane general anesthesia. A paired t-test was used to test the hypothesis that methylphenidate produces a respiratory alkalosis during isoflurane general anesthesia. The inventors used the two-sided Kolmogorov-Smirnov test with a Bonferonni correction to compare spectra in animals before and after receiving methylphenidate. The inventors considered a result to be statistically significant based on the 95% confidence intervals comparing two groups if zero was not in the interval, based on hypothesis tests if the p-values were less than 0.05 or in the case of the Bayesian analyses, if the relevant posterior probability was greater than 0.95.

Male Sprague-Dawley rats [4] = assay: Hemodynamic recordings (mean arterial blood pressure, heart rate) during isoflurane general anesthesia; type: in vivo, rat; details: individual animals, isoflurane 1.5%
Method: as §1

rats = assay: Restoration of righting and EEG during continuous propofol anesthesia; type: in vivo, rat; details: MPH 5 mg/kg IV, continuous propofol infusion
Method: For the second experiment, 2 IV catheters were placed and a continuous propofol infusion was started in rats with pre-implanted EEG electrodes. After establishing the minimum plasma concentration of propofol required to maintain loss of righting, the second IV catheter was flushed with NS, and 5 minutes later MPH (5 mg/kg) was administered.

Male Sprague-Dawley rats [5] = assay: Plethysmography during isoflurane general anesthesia; details: for Change in mean RR: after vs before methylphenidate 5 mg/kg IV
Source text: Plethysmography. Rats were placed in a custom built plethysmography chamber and the isoflurane concentration in the chamber was maintained at 1.5%. […] A differential pressure transducer and demodulator (Models CD15 and MP45-14-871; Validyne Engineering, Northridge, Calif.) were used to convert the chamber pressure to an analog signal. The signal was high pass filtered at 15 sec, acquired at 100 Hz, and analyzed in four second epochs using a USB-6009 data acquisition board (National Instruments, Austin, Tex.) and LabView Software (version 8.5 for Macintosh). Chamber carbon dioxide levels were maintained at or less than 0.5% in the open flow configuration. A heating pad was used to warm the rat from beneath. Chamber air temperature and relative humidity were measured with a thermometer-hygrometer (Fisher Scientific, Pittsburgh, Pa.) and used to estimate tidal volumes during intermittent chamber closure using methods described by Drorbaugh et al.^16

[6] = arterial blood 15 minutes after methylphenidate, isoflurane 1.5%, n = 6
[7] = after vs before methylphenidate 5 mg/kg IV, listed as Methylphenidate
[8] = individual animals pretreated with droperidol (0.5 mg/kg IV), isoflurane 1.5%
[9] = individual animals pretreated with normal saline, isoflurane 1.5%

COC(=O)[C@H](c1ccccc1)[C@H]1CCCCN1 (racemic) [methylphenidate]
median time to emergence (termination of isoflurane to return of righting) (Male Sprague-Dawley rats [1]; methylphenidate 5 mg/kg IV five minutes before end of 45 min isoflurane 1.5%, n=12): 91 s | median difference in time to emergence versus normal saline (Male Sprague-Dawley rats [1]; methylphenidate 5 mg/kg IV, isoflurane 1.5%): 200 s | median time to righting after methylphenidate (Male Sprague-Dawley rats [2]; 0.5 mg/kg IV, continuous inhalation of isoflurane): 348 s | median time to righting after methylphenidate (Male Sprague-Dawley rats [2]; 5 mg/kg IV, continuous inhalation of isoflurane): 181 s | median difference in time to righting between 0.5 and 5 mg/kg (Male Sprague-Dawley rats [2]; continuous inhalation of isoflurane): 173 s | return of righting after droperidol pretreatment (Male Sprague-Dawley rats [2]; droperidol 0.5 mg/kg IV five minutes before methylphenidate 5 mg/kg IV, continuous isoflurane, n=6): None of these animals had return of righting; also recorded: did not induce return of righting in any of the six animals | signs of arousal (Male Sprague-Dawley rats [2]; methylphenidate 0.05 mg/kg IV, continuous isoflurane, six rats): no signs of arousal | return of righting (rats) (Male Sprague-Dawley rats [2]; methylphenidate 0.5 mg/kg IV, continuous isoflurane): 11 of 12 | return of righting (rats) (Male Sprague-Dawley rats [2]; methylphenidate 5 mg/kg IV after normal saline, continuous isoflurane): 11 of 12 | time to purposeful movements (Male Sprague-Dawley rats [2]; methylphenidate 5 mg/kg, all 12 rats, continuous isoflurane): ≤ 30 s | P2CO2 after 5 mg/kg IV Methylphenidate (mean) (Male Sprague-Dawley rats [3]; [6]): 35 mmHg | P2O2 after 5 mg/kg IV Methylphenidate (mean) (Male Sprague-Dawley rats [3]; [6]): 241 mmHg | pH after 5 mg/kg IV Methylphenidate (mean) (Male Sprague-Dawley rats [3]; [6]): 7.51 | calculated increase in alveolar ventilation (VA) (Male Sprague-Dawley rats [3]; from paCO2 pre/post methylphenidate, assuming no change in baseline metabolism): 24±6% | Change in HR (mean) (Male Sprague-Dawley rats [4]; after vs before methylphenidate 5 mg/kg IV): 6 beats per minute and 15 beats per minute | Change in HR (mean) (Male Sprague-Dawley rats [4]; [7]): −14.2 beats per minute and −7.2 beats per minute and +13.9 beats per minute and +0.72 beats per minute and +0.5 beats per minute and −2.6 beats per minute | Change in MAP (mean) (Male Sprague-Dawley rats [4]; [7]): +20.5 mmHg and +8.3 mmHg and +3.2 mmHg and −1.4 mmHg and +0.5 mmHg and +7.4 mmHg | HR after 5 mg/kg IV Methylphenidate (mean) (Male Sprague-Dawley rats [4]): 386.8 beats per minute and 383.3 beats per minute and 365.5 beats per minute and 360.0 beats per minute and 358.6 beats per minute | MAP after 5 mg/kg IV Methylphenidate (mean) (Male Sprague-Dawley rats [4]): 117.1 mmHg and 90.9 mmHg and 91.3 mmHg and 85.2 mmHg and 100.7 mmHg and 90.8 mmHg | rats with signs of arousal and restoration of righting within 4 min (rats): 5/6 | time to restoration of righting in the rat with delayed arousal response (rats; one rat): 25 min | Change in mean RR (Male Sprague-Dawley rats [5]; [8]): +4.4 breaths per minute and +2.2 breaths per minute and +3.6 breaths per minute and +4.9 breaths per minute | Change in mean RR (Male Sprague-Dawley rats [5]; [9]): +29.2 breaths per minute and +9.8 breaths per minute and +50.36 breaths per minute and +18.9 breaths per minute | RR after 5 mg/kg IV Methylphenidate (mean) (Male Sprague-Dawley rats [5]; [8]): 86.3 breaths per minute and 78.0 breaths per minute and 84.1 breaths per minute and 75.5 breaths per minute | RR after 5 mg/kg IV Methylphenidate (mean) (Male Sprague-Dawley rats [5]; [9]): 154 breaths per minute and 112.6 breaths per minute and 94.2 breaths per minute and 153.8 breaths per minute and 116.7 breaths per minute | changes in tidal volume (Male Sprague-Dawley rats [5]; methylphenidate 5 mg/kg IV after droperidol 0.5 mg/kg IV, four rats, one increase, three decreases): 4-17% | changes in tidal volume (Male Sprague-Dawley rats [5]; methylphenidate 5 mg/kg IV after normal saline, isoflurane 1.5%): the changes were small and inconsistent | changes in tidal volume (Male Sprague-Dawley rats [5]; methylphenidate 5 mg/kg IV after normal saline, isoflurane 1.5%, listed as Methylphenidate): tidal volume remained essentially unchanged
